Test results: US7253187B2, “Heterocyclic inhibitors of ERK2 and uses thereof” (Vertex Pharmaceuticals Incorporated, priority 2001, dated 2007)
Where two headings read alike, the source gives them in different places.

Key:
[1] = biological target: ERK2 (Homo sapiens, UniProt P28482); assay: ERK2 inhibition assay (spectrophotometric coupled-enzyme assay); format: biochemical
Procedure: The IC50 was evaluated from the rate data as a function of inhibitor concentration. […] The compound numbers correspond to the compound numbers in Table 1.

[2] = biological target: T1, GSK-3β (AA 1–420) (Homo sapiens, UniProt P49841); assay: GSK-3 inhibition assay (coupled enzyme system); format: biochemical; details: read-out: GSK3 Inhibitory Activity (Ki class)
T1 construct: GSK-3β (AA 1–420)
Procedure: Final substrate concentrations in the assay were 20 μM ATP (Sigma Chemicals, St Louis, Mo.) and 300 μM peptide (HSSPHQS(PO3H2)EDEEE, American Peptide, Sunnyvale, Calif.). Reactions were carried out at 30° C. and 20 nM GSK-3β. Final concentrations of the components of the coupled enzyme system were 2.5 mM phosphoenolpyruvate, 300 μM NADH, 30 μg/ml pyruvate kinase and 10 μg/ml lactate dehydrogenase.
An assay stock buffer solution was prepared containing all of the reagents listed above with the exception of ATP and the test compound of interest. The assay stock buffer'solution (175 μl) was incubated in a 96 well plate with 5 μl of the test compound of interest at final concentrations spanning 0.002 μM to 30 μM at 30° C. for 10 min. […] The reaction was initiated by the addition of 20 μl of ATP (final concentration 20 μM). Rates of reaction were obtained using a Molecular Devices Spectramax plate reader (Sunnyvale, Calif.) over 10 min at 30° C. The Ki values were determined from the rate data as a function of inhibitor concentration.
The compound numbers correspond to the compound numbers in Table 1.

[3] = read-out: ERK2 Inhibitory Activity (Ki class D-F)

Sequence of ERK2 (P28482 whole entry): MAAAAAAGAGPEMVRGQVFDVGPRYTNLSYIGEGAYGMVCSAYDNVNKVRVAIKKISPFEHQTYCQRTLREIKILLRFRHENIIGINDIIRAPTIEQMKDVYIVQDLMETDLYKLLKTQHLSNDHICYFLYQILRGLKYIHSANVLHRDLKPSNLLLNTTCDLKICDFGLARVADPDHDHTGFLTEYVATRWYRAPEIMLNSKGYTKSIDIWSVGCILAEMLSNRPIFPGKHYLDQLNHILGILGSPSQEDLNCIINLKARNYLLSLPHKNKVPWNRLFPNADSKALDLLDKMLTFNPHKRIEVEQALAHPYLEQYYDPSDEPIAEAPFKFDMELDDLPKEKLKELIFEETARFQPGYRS
T1 sequence (P49841 whole entry, species assumed, the tested form may be a part): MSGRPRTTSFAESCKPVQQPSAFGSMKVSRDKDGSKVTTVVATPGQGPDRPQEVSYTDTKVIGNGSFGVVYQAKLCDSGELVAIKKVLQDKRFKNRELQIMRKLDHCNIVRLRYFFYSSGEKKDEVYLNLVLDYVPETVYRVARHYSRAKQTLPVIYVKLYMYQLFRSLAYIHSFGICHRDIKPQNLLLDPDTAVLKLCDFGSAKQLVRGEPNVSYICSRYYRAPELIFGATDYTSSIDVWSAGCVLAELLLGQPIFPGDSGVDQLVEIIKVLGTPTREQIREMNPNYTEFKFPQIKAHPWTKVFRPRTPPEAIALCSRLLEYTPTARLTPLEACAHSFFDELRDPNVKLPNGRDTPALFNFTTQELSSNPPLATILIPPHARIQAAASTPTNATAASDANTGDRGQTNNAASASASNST

Ki [1, 3] | Ki [2] | Structure (SMILES) | Ki ([1]; ERK2 Inhibitory Activity (Ki class D-F))
< 100 nM | < 100 nM | Cc1ccc(C(CO)NC(=O)c2cc(-c3nc(Nc4ccccc4)ncc3C)c[nH]2)cc1F (stereo not drawn) [III-a-145, 4-(5-Methyl-2-phenylamino-pyrimidin-4-yl)-1H-pyrrole-2-carboxylic acid [1-(3-fluoro-4-methyl-phenyl)-2-hydroxy-ethyl]-amide] | 
< 100 nM | 100 to 1000 nM | Cc1cnc(NC(CO)CC2CC2)nc1-c1c[nH]c(C(=O)NC(CO)c2ccccc2)c1 (stereo not drawn) [III-a-193, 4-[2-(2-Cyclopropyl-1-hydroxymethyl-ethylamino)-5-methyl-pyrimidin-4-yl]-1H-pyrrole-2-carboxylic acid (2-hydroxy-1-phenyl-ethyl)-amide] | 
100 to 1000 nM | > 1000 nM | O=C(NC(CO)c1ccccc1)c1cc(-c2nc(Nc3ccccc3)ncc2C2CC2)c[nH]1 (stereo not drawn) [III-a-144, 4-(5-Cyclopropyl-2-phenylamino-pyrimidin-4-yl)-1H-pyrrole-2-carboxylic acid (2-hydroxy-1-phenyl-ethyl)-amide] | 
< 100 nM | > 1000 nM | Cc1cnc(NC(CO)CO)nc1-c1c[nH]c(C(=O)NC(CO)c2cccc(Cl)c2)c1 (stereo not drawn) [III-a-233, 4-[2-(2-Hydroxy-1-hydroxymethyl-ethylamino)-5-methyl-pyrimidin-4-yl]-1H-pyrrole-2-carboxylic acid [1-(3-chloro-phenyl)-2-hydroxy-ethyl]-amide] | 
< 100 nM | < 100 nM | Cc1cnc(Nc2cccc(C)c2C)nc1-c1c[nH]c(C(=O)NC(CO)c2ccccc2)c1 (stereo not drawn) [III-a-194, 4-[2-(2,3-Dimethyl-phenylamino)-5-methyl-pyrimidin-4-yl]-1H-pyrrole-2-carboxylic acid (2-hydroxy-1-phenyl-ethyl)-amide] | 
< 100 nM | < 100 nM | Cc1cnc(NCC2CCCO2)nc1-c1c[nH]c(C(=O)NC(CO)c2ccccc2)c1 (stereo not drawn) [III-a-216, 4-{5-Methyl-2-[(tetrahydro-furan-2-ylmethyl)-amino]-pyrimidin-4-yl}-1H-pyrrole-2-carboxylic acid (2-hydroxy-1-phenyl-ethyl)-amide] | 
100 to 1000 nM | > 1000 nM | CCNc1ncc(C)c(-c2c[nH]c(C(=O)NC(CO)c3cccnc3)c2)n1 (stereo not drawn) [III-a-188, 4-(2-Ethylamino-5-methyl-pyrimidin-4-yl)-1H-pyrrole-2-carboxylic acid (2-hydroxy-1-pyridin-3-yl-ethyl)-amide] | 
< 100 nM | 100 to 1000 nM | Cc1cnc(NC(CO)c2ccccc2)nc1-c1c[nH]c(C(=O)NC(CO)c2cccc(C(F)(F)F)c2)c1 (stereo not drawn) [III-a-201, 4-[2-(2-Hydroxy-1-phenyl-ethylamino)-5-methyl-pyrimidin-4-yl]-1H-pyrrole-2-carboxylic acid [2-hydroxy-1-(3-trifluoromethyl-phenyl)-ethyl)-amide] | 
< 100 nM | < 100 nM | Cc1cccc(C(CO)NC(=O)c2cc(-c3nc(Nc4cccc(F)c4)ncc3C)c[nH]2)c1 (stereo not drawn) [III-a-212, 4-[2-(3-Fluoro-phenylamino)-5-methyl-pyrimidin-4-yl]-1H-pyrrole-2-carboxylic acid (2-hydroxy-1-m-tolyl-ethyl)-amide] | 
< 100 nM | < 100 nM | Cc1cnc(Nc2ccc(OC(F)(F)F)cc2)nc1-c1c[nH]c(C(=O)NC(CO)c2ccccc2)c1 (stereo not drawn) [III-a-157, 4-[5-Methyl-2-(4-trifluoromethoxy-phenylamino)-pyrimidin-4-yl]-1H-pyrrole-2-carboxylic acid (2-hydroxy-1-phenyl-ethyl)-amide] | 
< 100 nM | 100 to 1000 nM | Cc1cccc(C(CO)NC(=O)c2cc(-c3nc(Nc4cccc(C)c4C)ncc3C)c[nH]2)c1 (stereo not drawn) [III-a-211, 4-[2-(2,3-Dimethyl-phenylamino)-5-methyl-pyrimidin-4-yl]-1H-pyrrole-2-carboxylic acid (2-hydroxy-1-m-tolyl-ethyl)-amide] | 
< 100 nM | < 100 nM | Cc1cccc(C(CO)NC(=O)c2cc(-c3nc(Nc4ccccc4Cl)ncc3C)c[nH]2)c1 (stereo not drawn) [III-a-209, 4-[2-(2-Chloro-phenylamino)-5-methyl-pyrimidin-4-yl]-1H-pyrrole-2-carboxylic acid (2-hydroxy-1-m-tolyl-ethyl)-amide] | 
< 100 nM | 100 to 1000 nM | Cc1cnc(NC(CO)c2ccc(F)c(Cl)c2)nc1-c1c[nH]c(C(=O)NC(CO)c2ccccc2)c1 (stereo not drawn) [III-a-230, 4-{2-[1-(3-Chloro-4-fluoro-phenyl)-2-hydroxy-ethylamino]-5-methyl-pyrimidin-4-yl}-1H-pyrrole-2-carboxylic acid (2-hydroxy-1-phenyl-ethyl)-amide] | 
< 100 nM | > 1000 nM | CCNc1ncc(CO)c(-c2c[nH]c(C(=O)NC(CO)c3ccccc3)c2)n1 (stereo not drawn) [III-a-189, 4-(2-Ethylamino-5-hydroxymethyl-pyrimidin-4-yl)-1H-pyrrole-2-carboxylic acid (2-hydroxy-1-phenyl-ethyl)-amide] | 
100 to 1000 nM | > 1000 nM | CCNc1ncc(C)c(-c2c[nH]c(C(=O)NC(CCO)c3ccccc3)c2)n1 (stereo not drawn) [III-a-173, 4-(2-Ethylamino-5-methyl-pyrimidin-4-yl)-1H-pyrrole-2-carboxylic acid (3-hydroxy-1-phenyl-propyl)-amide] | 
< 100 nM | > 1000 nM | CCNc1ncc(C)c(-c2c[nH]c(C(=O)NC(CO)c3cccc(C(F)(F)F)c3)c2)n1 (stereo not drawn) [III-a-198, 4-(2-Ethylamino-5-methyl-pyrimidin-4-yl)-1H-pyrrole-2-carboxylic acid [2-hydroxy-1-(3-trifluoromethyl-phenyl)-ethyl]-amide] | 
< 100 nM | < 100 nM | Cc1cnc(NCC(C)C)nc1-c1c[nH]c(C(=O)NC(CO)c2ccccc2)c1 (stereo not drawn) [III-a-158, 4-(2-Isobutylamino-5-methyl-pyrimidin-4-yl)-1H-pyrrole-2-carboxylic acid (2-hydroxy-1-phenyl-ethyl)-amide] | 
< 100 nM | < 100 nM | Cc1cnc(NC(C)C)nc1-c1c[nH]c(C(=O)NC(CO)c2ccccc2)c1 (stereo not drawn) [III-a-153, 4-(2-Isopropylamino-5-methyl-pyrimidin-4-yl)-1H-pyrrole-2-carboxylic acid (2-hydroxy-1-phenyl-ethyl)-amide] | 
< 100 nM | 100 to 1000 nM | CC(=O)Nc1ncc(C)c(-c2c[nH]c(C(=O)NC(CO)c3ccccc3)c2)n1 (stereo not drawn) [III-a-213, 4-(2-Acetylamino-5-methyl-pyrimidin-4-yl)-1H-pyrrole-2-carboxylic acid (2-hydroxy-1-phenyl-ethyl)-amide] | 
< 100 nM | 100 to 1000 nM | CCNc1ncc(C)c(-c2c[nH]c(C(=O)NC(CO)c3cccc(F)c3)c2)n1 (stereo not drawn) [III-a-191, 4-(2-Ethylamino-5-methyl-pyrimidin-4-yl)-1H-pyrrole-2-carboxylic acid [1-(3-fluoro-phenyl)-2-hydroxy-ethyl]-amide] | 
< 100 nM | > 1000 nM | CNc1ncc(C)c(-c2c[nH]c(C(=O)NC(CO)c3ccc(F)c(Cl)c3)c2)n1 (stereo not drawn) [III-a-134, 4-(5-Methyl-2-methylamino-pyrimidin-4-yl)-1H-pyrrole-2-carboxylic acid [1-(3-chloro-4-fluoro-phenyl)-2-hydroxy-ethyl]-amide] | 
< 100 nM | > 1000 nM | Cc1cccc(C(CO)NC(=O)c2cc(-c3nc(NC(CO)c4ccccc4)ncc3C)c[nH]2)c1 (stereo not drawn) [III-a-210, 4-[2-(2-Hydroxy-1-phenyl-ethylamino)-5-methyl-pyrimidin-4-yl]-1H-pyrrole-2-carboxylic acid (2-hydroxy-1-m-tolyl-ethyl)-amide] | 
< 100 nM | < 100 nM | Cc1cnc(Nc2cccc(F)c2)nc1-c1c[nH]c(C(=O)NC(CO)c2cccc(C(F)(F)F)c2)c1 (stereo not drawn) [III-a-199, 4-[2-(3-Fluoro-phenylamino)-5-methyl-pyrimidin-4-yl]-1H-pyrrole-2-carboxylic acid [2-hydroxy-1-(3-trifluoromethyl-phenyl)-ethyl]-amide] | 

Structure (SMILES) | Ki [1, 3] | Ki [2] | Ki ([1]; ERK2 Inhibitory Activity (Ki class D-F))
Cc1cnc(NCCO)nc1-c1c[nH]c(C(=O)NC(CO)c2ccccc2)c1 (stereo not drawn) [III-a-175, 4-[2-(2-Hydroxy-ethylamino)-5-methyl-pyrimidin-4-yl]-1H-pyrrole-2-carboxylic acid (2-hydroxy-1-phenyl-ethyl)-amide] | < 100 nM | 100 to 1000 nM | 
Cc1cnc(NOCCO)nc1-c1c[nH]c(C(=O)NC(CO)c2ccccc2)c1 (stereo not drawn) [III-a-225, 4-[2-(2-Hydroxy-ethoxyamino)-5-methyl-pyrimidin-4-yl]-1H-pyrrole-2-carboxylic acid (2-hydroxy-1-phenyl-ethyl)-amide] | < 100 nM | < 100 nM | 
CCC(CO)Nc1ncc(C)c(-c2c[nH]c(C(=O)NC(CO)c3cccc(Cl)c3)c2)n1 (stereo not drawn) [III-a-232, 4-[2-(1-Hydroxymethyl-propylamino)-5-methyl-pyrimidin-4-yl]-1H-pyrrole-2-carboxylic acid (1-(3-chloro-phenyl)-2-hydroxy-ethyl]-amide] | < 100 nM | 100 to 1000 nM | 
Cc1cnc(NC(CO)c2ccccc2)nc1-c1c[nH]c(C(=O)NC(CO)c2ccccc2)c1 (stereo not drawn) [III-a-166, 4-[2-(2-Hydroxy-1-phenyl-ethylamino)-5-methyl-pyrimidin-4-yl]-1H-pyrrole-2-carboxylic acid (2-hydroxy-1-phenyl-ethyl)-amide] |  | > 1000 nM | 100 to 1000 nM
